Where two headings read alike, the source gives them in different places.
Legend:
Format in all cases: in vivo
[1] = system: Ctenocephatides felis, adult cat fleas; assay: Contact activity against adult cat fleas, coated glass vial assay
Description: Evaluation of the Efficacy of Test Compounds Against Adult Cat Fleas
(§1) The contact activity of a test compound against Ctenocephatides felis, adult cat fleas, is evaluated in a coated, glass vial assay. In this evaluation, a solution of test compound in acetone is allowed to dry on the interior surface of a 20 mL vial. Ten unfed adult cat fleas are added to the treated vial and mortality is assessed periodically for up to 48 h. All treatments are replicated 2 times. The data are averaged.

[2] = system: newly emerged larvae of Lucilia sericata, blowfly; assay: Efficacy against blowfly larvae, treated paper/serum bioassay; settings: blowfly larvae; for mortality at 0.2 ppm / mortality at 2 ppm / mortality at 20 ppm: Lucilia sericata
Description: Evaluation of Efficacy of Test Compounds Against Blowfly Larvae
The efficacy of a test compound against newly emerged larvae of Lucilia sericata, blowfly, is evaluated using a treated paper/serum bioassay. In this evaluation, a solution of test compound in acetone is applied to a filter paper disc and the disc is allowed to dry. Bovine serum and about 20 newly emerged blowfly larvae are added to the treated paper disc and the mortality is assessed at 24 h and 48 h. The data are averaged.

[3] = system: Rhipacephalus sanguineus, adult ticks; assay: Contact activity against adult ticks, coated glass vial assay
Description: Evaluation of the Efficacy of Test Compounds Against Adult Ticks
as §1, with “Rhipacephalus sanguineus,” for “Ctenocephatides felis,”, “ticks,” for “cat fleas,”, “coated” for “coated,”, “Five” for “Ten”, “ticks” for “cat fleas”

[4] = Conc. 0.2 ppm, 24 h, read-out: % Mortality 24 h
[5] = Conc. 0.2 ppm, 48 h, read-out: % Mortality 48 h
[6] = Conc. 2.0 ppm, 24 h, read-out: % Mortality 24 h
[7] = Conc. 2.0 ppm, 48 h, read-out: % Mortality 48 h
[8] = Conc. 20.0 ppm, 24 h, read-out: % Mortality 24 h
[9] = Conc. 20.0 ppm, 48 h, read-out: % Mortality 48 h

Compound | % Mortality 4 h ([1]; Conc. 2 ug/cm2, 4 h) [%] | % Mortality 24 h ([1]; Conc. 2 ug/cm2, 24 h) [%] | % Mortality 24 h ([2]; Conc. 2.0 ppm, 24 h) [%] | % Mortality 48 h ([2]; Conc. 2.0 ppm, 48 h) [%] | % Mortality 24 h ([2]; Conc. 20.0 ppm, 24 h) [%] | % Mortality 48 h ([2]; Conc. 20.0 ppm, 48 h) [%] | other results
CCCOC=Nc1c(C#N)c(C2(C)CC2(Cl)Cl)nn1-c1c(Cl)cc(C(F)(F)F)cc1Cl (racemic) [Example 39] | 0 | 70 | 70 | 70 | 100 | 100 | % Mortality 24 h ([2]; Conc. 0.2 ppm, 24 h): 0%; % Mortality 48 h ([2]; Conc. 0.2 ppm, 48 h): 0%
CCOC=Nc1c(C#N)c(C2(C)CC2(Cl)Cl)nn1-c1c(Cl)cc(C(F)(F)F)cc1Cl (racemic) [Example 40] | 0 | 100 | 0 | 0 | 100 | 100 | 
CC1(c2nn(-c3c(Cl)cc(C(F)(F)F)cc3Cl)c(Cl)c2C#N)CC1(Cl)Cl (centres unmarked) [Example 4, 5-Chloro-3-(2,2-dichloro-1-methylcyclopropyl)-1-[2,6-dichloro-4-(trifluoromethyl)phenyl]-1H-pyrazole-4-carbonitrile] | 100 | 100 |  |  |  |  | % Mortality 4 h ([3]; Conc. 0.78 ug/cm2, 4 h): 60%; % Mortality 24 h ([3]; Conc. 0.78 ug/cm2, 24 h): 100%; % Mortality 4 h ([3]; Conc. 7.80 ug/cm2, 4 h): 60%; % Mortality 24 h ([3]; Conc. 7.80 ug/cm2, 24 h): 100%; % Mortality 4 h ([1]; Conc. 0.002 ug/cm2, 4 h): 20%; % Mortality 24 h ([1]; Conc. 0.002 ug/cm2, 24 h): 100%; % Mortality 4 h ([1]; Conc. 0.2 ug/cm2, 4 h): 60%; % Mortality 24 h ([1]; Conc. 0.2 ug/cm2, 24 h): 100%; mortality at 0.2 ppm [2, 4]: 100%; mortality at 0.2 ppm [2, 5]: 100%; mortality at 2 ppm [2, 6]: 100%; mortality at 2 ppm [2, 7]: 100%; mortality at 20 ppm [2, 8]: 100%; mortality at 20 ppm [2, 9]: 100%
CC1(c2nn(-c3c(Cl)cc(C(F)(F)F)cc3Cl)cc2C#N)CC1(Cl)Cl (centres unmarked) [Example 5] | 0 | 33 |  |  |  |  | 
CC1(c2nn(-c3c(Cl)cc(Cl)cc3Cl)cc2C#N)CC1(Cl)Cl (centres unmarked) [Example 6] |  |  |  |  | 70 | 70 | % Mortality 24 h ([2]; Conc. 1.0 ppm, 24 h): 10%; % Mortality 48 h ([2]; Conc. 1.0 ppm, 48 h): 10%
CC1C(Cl)(Cl)C1(C)c1nn(-c2c(Cl)cc(C(F)(F)F)cc2Cl)cc1C#N (centres unmarked) [Example 7] | 0 | 100 | 0 | 0 | 77 | 90 | % Mortality 4 h ([3]; Conc. 0.78 ug/cm2, 4 h): 0%; % Mortality 24 h ([3]; Conc. 0.78 ug/cm2, 24 h): 10%; % Mortality 4 h ([3]; Conc. 7.80 ug/cm2, 4 h): 10%; % Mortality 24 h ([3]; Conc. 7.80 ug/cm2, 24 h): 80%
COc1ccc(C2(c3nn(-c4c(Cl)cc(C(F)(F)F)cc4Cl)cc3C#N)CC2)cc1 [Example 9] |  |  |  |  | 0 | 0 | 
N#Cc1cn(-c2c(Cl)cc(C(F)(F)F)cc2Cl)nc1C1(c2ccc(Cl)cc2)CC1 [Example 10] |  |  |  |  | 0 | 0 | 
CC1(c2nn(-c3c(Cl)cc(Cl)cc3Cl)cc2C#N)CC1 [Example 11] |  |  |  |  | 0 | 0 | 
COc1ccc(C2(c3nn(-c4c(Cl)cc(Cl)cc4Cl)cc3C#N)CC2)cc1 [Example 13] |  |  |  |  | 0 | 0 | 
CC1(c2nn(-c3c(Cl)cc(C(F)(F)F)cc3Cl)cc2C#N)CC1(Br)Br (centres unmarked) [Example 14] | 10 | 100 | 100 | 100 | 95 | 100 | % Mortality 4 h ([3]; Conc. 0.78 ug/cm2, 4 h): 40%; % Mortality 24 h ([3]; Conc. 0.78 ug/cm2, 24 h): 40%; % Mortality 4 h ([3]; Conc. 7.80 ug/cm2, 4 h): 50%; % Mortality 24 h ([3]; Conc. 7.80 ug/cm2, 24 h): 80%; % Mortality 24 h ([2]; Conc. 0.2 ppm, 24 h): 50%; % Mortality 48 h ([2]; Conc. 0.2 ppm, 48 h): 50%
CC1(c2nn(-c3c(Cl)cc(Cl)cc3Cl)cc2C#N)CC1(Br)Br (centres unmarked) [Example 15] | 10 | 80 | 95 | 95 | 90 | 90 | % Mortality 24 h ([2]; Conc. 0.2 ppm, 24 h): 0%; % Mortality 48 h ([2]; Conc. 0.2 ppm, 48 h): 0%
N#Cc1cn(-c2c(Cl)cc(C(F)(F)F)cc2Cl)nc1C1(c2ccc(Cl)cc2Cl)CC1 [Example 17] |  |  |  |  | 0 | 0 | 
N#Cc1cn(-c2c(Cl)cc(Cl)cc2Cl)nc1C1(c2ccc(Cl)cc2Cl)CC1 [Example 18] |  |  |  |  | 0 | 0 | 
CC1(c2nn(-c3c(Cl)cc(C(F)(F)F)cc3Cl)c(N)c2C#N)CC1(Cl)Cl (centres unmarked) [Example 19, 5-Amino-3-(2,2-dichloro-1-methylcyclopropyl)-1-[2,6-dichloro-4-(trifluoromethyl)phenyl]-1H-pyrazole-4-carbonitrile] | 0 | 10 |  |  |  |  | % Mortality 4 h ([3]; Conc. 0.78 ug/cm2, 4 h): 0%; % Mortality 24 h ([3]; Conc. 0.78 ug/cm2, 24 h): 20%; % Mortality 4 h ([3]; Conc. 7.80 ug/cm2, 4 h): 40%; % Mortality 24 h ([3]; Conc. 7.80 ug/cm2, 24 h): 70%; mortality at 0.2 ppm [2, 4]: 0%; mortality at 0.2 ppm [2, 5]: 0%; mortality at 2 ppm [2, 6]: 100%; mortality at 2 ppm [2, 7]: 100%; mortality at 20 ppm [2, 8]: 75%; mortality at 20 ppm [2, 9]: 95%
N#Cc1c(C2CC2)nn(-c2c(Cl)cc(C(F)(F)F)cc2Cl)c1N [Example 24] |  |  |  |  |  |  | % Mortality 24 h ([2]; Conc. 10.0 ppm, 24 h): 0%; % Mortality 48 h ([2]; Conc. 10.0 ppm, 48 h): 0%
CC1(c2nn(-c3c(Cl)cc(Cl)cc3Cl)c(N)c2C#N)CC1(Cl)Cl (centres unmarked) [Example 25] |  |  |  |  | 5 | 5 | % Mortality 24 h ([2]; Conc. 10.0 ppm, 24 h): 0%; % Mortality 48 h ([2]; Conc. 10.0 ppm, 48 h): 0%
N#Cc1c(C2CC2)nn(-c2c(Cl)cc(C(F)(F)F)cc2Cl)c1Cl [Example 26] | 100 | 100 | 0 | 0 | 97 | 97 | % Mortality 24 h ([2]; Conc. 10.0 ppm, 24 h): 0%; % Mortality 48 h ([2]; Conc. 10.0 ppm, 48 h): 50%
CC1(c2nn(-c3c(Cl)cc(Cl)cc3Cl)c(Cl)c2C#N)CC1(Cl)Cl (centres unmarked) [Example 27] | 10 | 100 | 100 | 100 | 100 | 100 | % Mortality 24 h ([2]; Conc. 0.2 ppm, 24 h): 0%; % Mortality 48 h ([2]; Conc. 0.2 ppm, 48 h): 0%
CC1(c2nn(-c3c(Cl)cc(Cl)cc3Cl)c(Br)c2C#N)CC1(Cl)Cl (centres unmarked) [Example 28] | 0 | 10 | 95 | 100 | 100 | 100 | % Mortality 24 h ([2]; Conc. 0.2 ppm, 24 h): 0%; % Mortality 48 h ([2]; Conc. 0.2 ppm, 48 h): 0%
CC1(c2nn(-c3c(Cl)cc(C(F)(F)F)cc3Cl)c([N+](=O)[O-])c2C#N)CC1(Cl)Cl (centres unmarked) [Example 30] | 0 | 100 |  |  | 20 | 20 | % Mortality 24 h ([2]; Conc. 10.0 ppm, 24 h): 10%; % Mortality 48 h ([2]; Conc. 10.0 ppm, 48 h): 50%
CCN(CC)c1c(C#N)c(C2(C)CC2(Cl)Cl)nn1-c1c(Cl)cc(C(F)(F)F)cc1Cl (centres unmarked) [Example 33] | 20 | 100 | 90 | 90 | 100 | 100 | % Mortality 24 h ([2]; Conc. 0.2 ppm, 24 h): 0%; % Mortality 48 h ([2]; Conc. 0.2 ppm, 48 h): 0%
CC(C)(C)C(=O)Nc1c(C#N)c(C2(C)CC2(Cl)Cl)nn1-c1c(Cl)cc(C(F)(F)F)cc1Cl (centres unmarked) [Example 34] |  |  |  |  | 0 | 0 | 
CC1(c2nn(-c3c(Cl)cc(C(F)(F)F)cc3Cl)c(N(C(=O)C3CC3)C(=O)C3CC3)c2C#N)CC1(Cl)Cl (centres unmarked) [Example 35] |  |  |  |  | 0 | 0 | 
CC1(c2nn(-c3c(Cl)cc(C(F)(F)F)cc3Cl)c(NC(=O)C3CC3)c2C#N)CC1(Cl)Cl (centres unmarked) [Example 36] |  |  |  |  | 10 | 10 | % Mortality 24 h ([2]; Conc. 10.0 ppm, 24 h): 0%
COC=Nc1c(C#N)c(C2(C)CC2(Cl)Cl)nn1-c1c(Cl)cc(C(F)(F)F)cc1Cl (centres unmarked) [Example 37] | 10 | 100 | 0 | 0 | 100 | 100 | 
CN(C)C=Nc1c(C#N)c(C2(C)CC2(Cl)Cl)nn1-c1c(Cl)cc(C(F)(F)F)cc1Cl (centres unmarked) [Example 38] |  |  |  |  | 0 | 0 | 

— patent US20060154923A1, “N-phenyl-3-cyclopropylpyrazole-4-carbonitriles as ectoparasiticidal agents” (priority 2002, published 2006)
